Measured values published in patent US10662203B2, “Pyrido[2,3-b]indole compounds for the treatment and prophylaxis of bacterial infection” (Hoffmann-La Roche Inc., priority 2017, dated 2020).
≈ marks a conversion by molar mass, not a printed value.

What was measured:
A. baumannii (ATCC17978) = assay: 50% growth inhibitory concentration (IC50) determination assay; format: cell-based; details: Acinetobacter baumannii, ATCC17978, A. baumannii ATCC17978; Iso-Sensitest broth; 0.098 = detection limit
In short: (§1)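 Growth was tracked as optical density at 600 nm every 20 minutes for 16 h at 35±2° C, giving IC50 values. Inocula of ~5×10^5 CFU/mL in Iso-Sensitest broth faced two-fold compound dilutions spanning 50 to 0.097 μM final.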

[1] = tested on: K. pneumoniae (ATCC10031); assay: as above; format: cell-based; details: Klebsiella pneumoniae, Iso-Sensitest broth, 0.098 = detection limit
In short: as §1

S. aureus (ATCC29213) = assay: as above; format: cell-based; details: Staphylococcus aureus, Iso-Sensitest broth, 0.098 = detection limit
In short: as §1

[2] = Lyophilisation solubility assay (LYSA); format: physicochemical; details: 0.05 M phosphate buffer, HPLC-UV; for solubility thermodynamic: phosphate buffer, pH 6.5, aqueous buffer, thermodynamic from solid
Description: Lyophilisation Solubility Assay (LYSA):
The solubility of compounds of present invention was assessed by LYSA assay. Samples were prepared in duplicate from 10 mM DMSO stock solutions (20 μL) diluted in 30 μL pure DMSO. After evaporation of DMSO with a centrifugal vacuum evaporator, the residue was dissolved in 0.05 M phosphate buffer (150 μL, pH 6.5), which was stirred for one hour and shook for two hours. After one night, the solution was filtered using a microtiter filter plate. Then the filtrate and its 1/10 dilution were analyzed by HPLC-UV.

| SMILES | IC50 (A. baumannii (ATCC17978)) [µM] | IC50 [1] [µM] | IC50 (S. aureus (ATCC29213)) [µM] | solubility thermodynamic [2] [µg/mL] | Lysa ([2]; pH 6.5) [µg/mL] |
| --- | --- | --- | --- | --- | --- |
| CNc1cc(F)c(F)c2c1[nH]c1ncc(-c3cnc4c(c3)c(=O)c(C(=O)O)cn4COC)c(N3CC[C@H]4CN(C)C[C@H]43)c12 (relative stereo) [Example 5.06, 6-[4-[cis-5-methyl-2,3,3a,4,6,6a-hexahydropyrrolo[2,3-c]pyrrol-1-yl]-5,6-difluoro-8-(methylamino)-9H-pyrido[2,3-b]indol-3-yl]-1-(methoxymethyl)-4-oxo-1,8-naphthyridine-3-carboxylic acid] | 0.295 | < 0.098 | < 0.098 | 366 (≈ 621 µM) |  |
| CCN1CCCC1Cn1cc(C(=O)O)c(=O)c2cc(-c3cnc4[nH]c5c(NC)cc(F)c(F)c5c4c3N(C)C)cnc21 (stereo not shown) [Example 1.04] | 0.935 | 0.101 | < 0.098 | 32 (≈ 55.6 µM) |  |
| CNc1cc(F)c(F)c2c1[nH]c1ncc(-c3cnc4c(c3)c(=O)c(C(=O)O)cn4C)c(N3CCC[C@@H]3CN(C)C)c12 [Example 1.13] |  |  |  | 389 (≈ 693 µM) |  |
| CNc1cc(F)c(F)c2c1[nH]c1ncc(-c3cnc4c(c3)c(=O)c(C(=O)O)cn4C)c(N3CC4C(CN(C)C)CO[C@@H]4C3)c12 (stereo partly shown) [Example 1.88] | 0.289 | < 0.098 | < 0.098 | 485 (≈ 803 µM) |  |
| CNc1cc(F)cc2c1[nH]c1ncc(-c3cnc4c(c3)c(=O)c(C(=O)O)cn4NC)c(N3CCC(F)(CN(C)C)C3)c12 (stereo not shown) [Example 1.92] | 0.14 | < 0.098 | < 0.098 | 88 (≈ 153 µM) |  |
| CNc1cc(F)c(F)c2c1[nH]c1ncc(-c3cnc4c(c3)c(=O)c(C(=O)O)cn4NC)c(N3CCC(F)(CN(C)C)C3)c12 (stereo not shown) [Example 1.93] | 0.094 | < 0.098 | < 0.098 | 105 (≈ 177 µM) |  |
| CNc1cc(F)c(F)c2c1[nH]c1ncc(-c3cnc4c(c3)c(=O)c(C(=O)O)cn4C)c(N3CC[C@H]4CN(CCOC)CC43)c12 (stereo partly shown) [Example 1.96] | 0.269 | < 0.098 | < 0.098 | 169 (≈ 280 µM) |  |
| CNc1cc(F)c(F)c2c1[nH]c1ncc(-c3cnc4c(c3)c(=O)c(C(=O)O)cn4C)c(N3CCC(O)(CN(C)C)C3)c12 (stereo not shown) [Example 1.100] | 0.9 | < 0.098 | 0.272 | 632 (≈ 1090 µM) |  |
| CNc1cc(F)c(F)c2c1[nH]c1ncc(-c3cnc4c(c3)c(=O)c(C(=O)O)cn4C)c(N3CCC(C)(CN(C)C)C3)c12 (stereo not shown) [Example 1.101] | 0.15 | < 0.098 | < 0.098 | 214 (≈ 372 µM) |  |
| CNc1c(F)c(F)cc2c1[nH]c1ncc(-c3cnc4c(c3)c(=O)c(C(=O)O)cn4C)c(N3CC[C@H]4CN(C)CC43)c12 (stereo partly shown) [Example 1.103] | 0.13 |  |  | 11 (≈ 19.7 µM) |  |
| CNc1cc(F)cc2c1[nH]c1ncc(-c3cnc4c(c3)c(=O)c(C(=O)O)cn4C)c(N3CC4[C@H](CCCN4C)C3)c12 (stereo partly shown) [Example 1.110] | 0.074 | < 0.098 | < 0.098 | 71 (≈ 128 µM) |  |
| CNc1cc(F)cc2c1[nH]c1ncc(-c3cnc4c(c3)c(=O)c(C(=O)O)cn4NC)c(N3CC4[C@H](CCCN4C)C3)c12 (stereo partly shown) [Example 1.111] | 0.115 | < 0.098 | < 0.098 | 112 (≈ 196 µM) |  |
| CNc1cc(F)c(F)c2c1[nH]c1ncc(-c3cnc4c(c3)c(=O)c(C(=O)O)cn4C)c(N3CCC4(F)CN(C)CC34)c12 (stereo not shown) [Example 1.120] | 0.169 | < 0.098 | < 0.098 | 37 (≈ 64.1 µM) |  |
| CNc1cc(F)c(F)c2c1[nH]c1ncc(-c3cnc4c(c3)c(=O)c(C(=O)O)cn4NC)c(N3CCC4(F)CN(C)CC34)c12 (stereo not shown) [Example 1.121] | 0.215 | < 0.098 | < 0.098 | 58 (≈ 97.9 µM) |  |
| CCNc1cc(C(F)(F)F)cc2c1[nH]c1ncc(-c3cnc4c(c3)c(=O)c(C(=O)O)cn4NC)c(N3CC[C@H]4CN(C)CC43)c12 (stereo partly shown) [Example 1.123] | 0.696 | < 0.098 | < 0.098 | 48 (≈ 77.3 µM) |  |
| CNc1cc(F)c(F)c2c1[nH]c1ncc(-c3cnc4c(c3)c(=O)c(C(=O)O)cn4C)c(N3CCC4(CF)CN(C)CC34)c12 (stereo not shown) [Example 1.124] | 0.074 | < 0.098 | < 0.098 | 151 (≈ 255 µM) |  |
| CNc1cc(F)c(F)c2c1[nH]c1ncc(-c3cnc4c(c3)c(=O)c(C(=O)O)cn4NC)c(N3CCC4(CF)CN(C)CC34)c12 (stereo not shown) [Example 1.125] | 0.079 | < 0.098 | < 0.098 | 262 (≈ 432 µM) |  |

| SMILES | IC50 (A. baumannii (ATCC17978)) [µM] | IC50 [1] [µM] | IC50 (S. aureus (ATCC29213)) [µM] | solubility thermodynamic [2] [µg/mL] | Lysa ([2]; pH 6.5) [µg/mL] |
| --- | --- | --- | --- | --- | --- |
| CNc1cc(Cl)cc2c1[nH]c1ncc(-c3cnc4c(c3)c(=O)c(C(=O)O)cn4C)c(N3CCC(N(C)C)C3)c12 (stereo not shown) [Example 1.139] | 0.116 | < 0.098 | < 0.098 | 20 (≈ 36.6 µM) |  |
| CNc1cc(F)cc2c1[nH]c1ncc(-c3cnc4c(c3)c(=O)c(C(=O)O)cn4C)c(N3CCC(CN(C)CCOC)C3)c12 (stereo not shown) [Example 1.141] | 0.485 | < 0.098 | < 0.098 | 485 (≈ 825 µM) |  |
| CNc1cc(F)cc2c1[nH]c1ncc(-c3cnc4c(c3)c(=O)c(C(=O)O)cn4C)c(N3C[C@H](C)[C@@H](N(C)C)C3)c12 [Example 1.152] | 0.305 | < 0.098 | < 0.098 | 49 (≈ 90.1 µM) |  |
| CNc1cc(F)cc2c1[nH]c1ncc(-c3cnc4c(c3)c(=O)c(C(=O)O)cn4NCC(F)(F)F)c(N3CCC[C@H]3CN(C)C)c12 [Example 1.153] | 0.388 | < 0.098 | 0.372 | 201 (≈ 321 µM) |  |
| CNc1cc(F)c(F)c2c1[nH]c1ncc(-c3cnc4c(c3)c(=O)c(C(=O)O)cn4C)c(N3CC4(CC4)C[C@H]3CN(C)C)c12 [Example 1.157] | 0.299 | < 0.098 | < 0.098 | 42 (≈ 71.5 µM) |  |
| CNc1cc(F)c(F)c2c1[nH]c1ncc(-c3cnc4c(c3)c(=O)c(C(=O)O)cn4C)c(N3C[C@H](OC)[C@@H](N(C)C)C3)c12 [Example 1.158] | 0.23 |  |  |  | 49 |
| CNc1cc(F)c(F)c2c1[nH]c1ncc(-c3cnc4c(c3)c(=O)c(C(=O)O)cn4C)c(N3CCN4CCC[C@H]4C3)c12 [Example 1.219] | 0.267 |  |  | 73 (≈ 130 µM) |  |
| CNc1cc(F)c(F)c2c1[nH]c1ncc(-c3cnc4c(c3)c(=O)c(C(=O)O)cn4C)c(N3CCN4CCC[C@@H]4C3)c12 [Example 1.220] | 0.141 |  |  | 79 (≈ 141 µM) |  |
| CNc1cc(F)c(F)c2c1[nH]c1ncc(-c3cnc4c(c3)c(=O)c(C(=O)O)cn4NC)c(N3CC4OCCN(C)C4C3)c12 (stereo not shown) [Example 1.236] |  |  |  | 55 (≈ 93.1 µM) |  |
| CNc1cc(F)c(F)c2c1[nH]c1ncc(-c3cnc4c(c3)c(=O)c(C(=O)O)cn4NC)c(N3CCC4CN(C)CCC43)c12 (stereo not shown) [Example 1.244] |  |  |  | 254 (≈ 432 µM) |  |
| CNc1cc(F)c(F)c2c1[nH]c1ncc(-c3cnc4c(c3)c(=O)c(C(=O)O)cn4C)c(N3CC[C@@H]4CN(C)C[C@@H]43)c12 [Example 3.03B] |  |  |  | 180 (≈ 322 µM) |  |
| CNc1cc(F)c(F)c2c1[nH]c1ncc(-c3cnc4c(c3)c(=O)c(C(=O)O)cn4C)c(N3CCO[C@@H](CN(C)C)C3)c12 [Example 4.02B, (S)-6-(4-(2-((dimethylamino)methyl)morpholino)-5,6-difluoro-8-(methylamino)-9H-pyrido[2,3-b]indol-3-yl)-1-methyl-4-oxo-1,4-dihydro-1,8-naphthyridine-3-carboxylic acid] | 0.408 | < 0.098 | 0.207 |  |  |
| CNc1cc(F)c(F)c2c1[nH]c1ncc(-c3cnc4c(c3)c(=O)c(C(=O)O)cn4N)c(N3CC[C@H]4CN(C)CC43)c12 (stereo partly shown) [Example 5.02] |  |  |  | 174 (≈ 310 µM) |  |
| CNc1cc(F)c(F)c2c1[nH]c1ncc(-c3cnc4c(c3)c(=O)c(C(=O)O)cn4NCC(F)(F)F)c(N(C)C)c12 [Example 5.03, 6-(4-(dimethylamino)-5,6-difluoro-8-(methylamino)-9H-pyrido[2,3-b]indol-3-yl)-4-oxo-1-((2,2,2-trifluoroethyl)amino)-1,4-dihydro-1,8-naphthyridine-3-carboxylic acid] | 0.745 | 0.275 | < 0.098 |  |  |
| CNc1cc(F)cc2c1[nH]c1ncc(-c3cnc4c(c3)c(=O)c(C(=O)O)cn4N)c(N3CC[C@H]4CN(C)CC43)c12 (stereo partly shown) [Example 5.05] |  |  |  | 250 (≈ 461 µM) |  |
| CNc1cc(F)c(F)c2c1[nH]c1ncc(-c3cnc4c(c3)c(=O)c(C(=O)O)cn4C)c(N3CCC4(C[C@@H]4N(C)C)C3)c12 (stereo partly drawn) [Example 6.01, 6-(4-(trans-2-(Dimethylamino)-5-azaspiro[2.4]heptan-5-yl)-5,6-difluoro-8-(methylamino)-9H-pyrido[2,3-b]indol-3-yl)-1-methyl-4-oxo-1,4-dihydro-1,8-naphthyridine-3-carboxylic acid] | 0.257 | 0.118 | < 0.098 |  |  |
| CNc1cc(F)c(F)c2c1[nH]c1ncc(-c3cnc4c(c3)c(=O)c(C(=O)O)cn4C)c(N3CCC4(C[C@H]4N(C)C)C3)c12 (stereo partly drawn) [Example 6.02, 6-(4-cis-(2-(dimethylamino)-5-azaspiro[2.4]heptan-5-yl)-5,6-difluoro-8-(methylamino)-9H-pyrido[2,3-b]indol-3-yl)-1-methyl-4-oxo-1,4-dihydro-1,8-naphthyridine-3-carboxylic acid] | 0.389 | 0.166 | < 0.098 |  |  |
